Tests used:
[1] = target: T1, NaV1.7 (Homo sapiens, UniProt Q15858); assay: Automated patch clamp (Qube 384), internal block of NaV1.7 in HEK293 cells; format: cell-based; settings: compound in internal solution, read-out: Nav1.7 Intracellular Inhibition (IC50)
T1 construct: expressed in transfected cells; tetracycline-inducible, kept under hygromycin and blasticidin
Protocol: (§1) NaV1.7 was expressed in HEK293 cells upon induction with tetracycline. Cells were cultured in DMEM containing 10% dialyzed Fetal Bovine Serum (VWR, Radnor, Pa.), 1% Glutamax (VWR, Radnor, Pa.), 1% Penicillin-Streptomycin (VWR, Radnor, Pa.), 100 mg/L Hygromycin (Thermo Fisher Scientific, Waltham, Mass. and 5 mg/L Blasticidin (Alfa Aesar, Haverhill, Mass.). Cells were grown and maintained at 37° C. in a humidified environment containing 10% CO2 in air. Cells were detached from the culture flask for passage and harvested using 0.05% Trypsin-EDTA (Thermo Fisher Scientific, Waltham, Mass.). To induce NaV1.7, cells were induced with tetracycline (0.1-1 μg/mL, IBI Scientific, Peosta, Iowa) the day before recording.
(§2) Before experiments, cells were washed with DPBS (VWR, Radnor, Pa.), digested with Detachin (VWR Radnor, Pa.) and then triturated 10 times in CHO Serum-Free Media (VWR Radnor, Pa.) to resuspend the cells and to break apart cell aggregates. Cells were counted and the final concentration was set at 2-5 million cells per mL.
(§3) The intracellular solution contained the following: 140 mM CsF, 1 mM/5 mM EGTA/CsOH, 10 mM HEPES, 10 mM NaCl, adjusted to pH 7.3 with CsOH, and osmolality to 320 with sucrose. The external solution contained the following: 145 mM NaCl, 4 mM KCl, 1 mM MgCl2, 2 mM CaCl2, 10 mM HEPES, 10 mM Glucose, adjusted to pH 7.4 with CsOH and osmolality to 305 with sucrose. All chemicals are from Sigma-Aldrich, St. Louis, Mo. In order to test the degree of internal block by test compounds, the compounds were dissolved in internal solution at the indicated test concentration. […] In order to test the degree of external block by test compounds the compounds were dissolved in external solution at the indicated test concentration.
(§4) Automated Patch Clamps were performed on Qube 384 (Sophion Bioscience, Woburn Mass.) with multihole Qchips at a temperature setting of 22 degrees. The whole cells configuration was formed with default Qube seal and break-in parameter. The membrane potential was held at −100 mV before the voltage protocol began. Two voltage protocols were followed.
(§5) Step 1: Cells were held at −100 mV with a depolarized pulse to −20 mV for 10 ms, the interval was set at 5 s. Currents were corrected by default leak subtraction from every pulse. The duration was set at 5 mins.
(§6) Step 2: Cells were held at −100 mV with a depolarized pulse to −20 mV for 10 ms. The frequency was 5 Hz. Currents were corrected by leak subtraction calculated before step 2. The duration was set at 4 mins.
After Step 2, the Qchip was removed from the recording chamber. The internal solution was changed with solutions containing test compounds. Qchips were held at −100 mV without pulsing after being replaced in the recording chamber. The total solution switching time was 8 minutes. After the internal solution exchange, Cells were recorded and step 2 for repeated for 10 minutes.
Data analysis was performed by Sophion Analyzer. Cells were filtered with minimum 50 MOhm seal resistance and minimum 5 nA starting current. The rundown of the currents was corrected with control cells (Non-Drug). The remaining was calculated by averaging last 3 points in the end of experiments. The base line was calculated as the average of last 3 points of Step 2. IC50 curves were plotted with DR-plots/Hill function (a dose-response plot with a Hill fit). Data analysis was performed by Sophion Analyzer.

[2] = target: T1, NaV1.7; assay: Automated patch clamp (Qube 384), external block of NaV1.7 in HEK293 cells; format: cell-based; settings: compound in external solution, read-out: Nav1.7 Extracellular Inhibition (IC50)
Protocol: as §1, §2, §3, §4, §5, §6
After Step 2, the external solution was changed with solutions containing test compounds. Qchips were held at −100 mV without pulsing. The total solution switching time was 8 minutes. After the external solution exchange, cells were recorded using the same procedure as step 2 for 10 minutes.
Data analysis was performed by Sophion Analyzer. Data were corrected with control cells (Non-Drug). The IC50 data were plotted with DR-plots/Hill function (a dose-response plot with a Hill fit).

[3] = PAMPA membrane permeability assay; format: in vitro ADME; settings: PAMPA permeability coefficient, GIT lipid, buffer pH 7.4, 4 hours incubation
Protocol: The PAMPA assay (pION, Inc., Woburn Mass.) was used to determine the ability of compounds of the invention to cross an artificial lipid membrane by passive diffusion. Test compounds were dissolved in DMSO (10 mM) and diluted 200-fold in buffer (pION Inc., pH 7.4) to provide 50 uM stock solutions. Buffer (150 μL) was added to a UV blank plate and stock solutions (150 μL) were transferred to a UV reference plate. The blank and reference spectrum were read using a spectrophotometer. Stock solutions (200 μL) were added to the donor plate of the PAMPA sandwich plate and an accept plate painted with GIT lipid (pION Inc, 5 μL) was placed on top. Buffer (200 μL) was added to the acceptor plate and the PAMPA sandwich plate was incubated for 4 hours. Aliquots (150 μL) from the acceptor plate were added to a UV plate and read as acceptor spectrum. Aliquots (150 μL) of the donor solutions were added to a UV analysis plate and read as donor spectrum. The permeability coefficient of test compounds was calculated using PAMPA Explorer™ software (version 3.5.0.4) based on the AUC of the reference plate, the donor plate, and the acceptor plate.

[4] = target: T1, NaV1.7; assay: Whole cell patch clamp, internal block of NaV1.7 current (compound in internal solution); format: cell-based; settings: % inhibition at 10 μM, compound applied internally, manual patch clamp; read-out: Nav1.7 Intracellular Inhibition
Protocol: Representative compounds of the invention were synthesized according to the described methods and tested for the ability to inhibit voltage-gated sodium channels.
as §1, with “expressed” for “expressed in HEK293 cells”, “recording and plated onto 24-well plates. Cells were washed with DPBS (VWR, Radnor, Pa.), trypsinized and then triturated five times in 10 mL of growth media to break apart cell aggregates. For one 24-well plate, 2 mL of cell suspension was mixed with 23 mL of fresh growth media and 0.1-1 μg/mL tetracycline added. 1 ml of mixed media with cells was then added to each well of a 24-well plate, with a 12 mm coverslip already placed in the bottom of the well. Cells were then incubated in 37° C. and 10% CO2 overnight.” for “recording.”
The intracellular solution contained the following (in mM) CsCl 135, NaCl 10, EGTA 10, HEPES 10, MgCl2 2, adjusted to pH 7.2 with CsOH. The external solution was a normal Ringer solution containing (in mM) NaCl 155, HEPES 10, glucose 10, KCl 3.5, CaCl2 1.5, MgCl2 1 adjusted to pH 7.4 with NaOH. CsCl is from Alfa Aesar, Haverhill, Mass. All other chemicals are from Sigma-Aldrich, St. Louis, Mo. In order to test the degree of internal block by test compounds the compounds were dissolved in internal solution at the indicated test concentration. […] In order to test the degree of external block by test compounds the compounds were dissolved in external solution at the indicated test concentration.
18-24 hours after cells were induced with tetracycline, coverslips were placed into a chamber filled with Normal Ringer solution at room temperature and the chamber placed on a microscope. Pipettes were pulled from borosilicate glass on a P97 puller (Sutter Instrument, Novato, Calif.) and polished with a MF-830 Microforge (Narishige International USA, Inc, Amityville, N.Y.) to have a resistance of 1.5-2.5 MΩ when filled with CsCl internal solution at room temperature. Healthy cells (those that are round and translucent with no visible blemishes) were chosen for seal formation. A seal was formed between the pipette and the cell, and a brief pulse of suction was used to “break in” and establish the whole-cell configuration. The membrane potential was held at −100 mV before the voltage protocol began. Only cells with series resistance between 1.5-5 MΩ were retained for analysis. The voltage protocol was as follows: Cells were held at −100 mV for 12 ms followed by a hyperpolarizing step to −105 mV for 12 ms to monitor the leak. Cells were then stepped back to −100 mV for 40 ms. Cells were then depolarized to −20 mV for 10 ms and then returned to −100 mV for 26 ms.
Once the recording was started, the voltage protocol was run at 30 second intervals for 5 minutes to get a stable baseline. This was followed by four 30-second periods of 5 Hz stimulation of the same voltage protocol separated by 1 minute of rest which was then followed by 0.33 Hz stimulation after the last train. Currents were recorded using PatchMaster software with Heka EPC10 (HEKA Electronics, Lambrecht, Germany). Only cells with inward current amplitudes at −20 mV between 400 pA and 4 nA were accepted. In addition, cells having leak currents greater than 10% of their current amplitudes were discarded. […]

T1 sequence (Q15858 whole entry): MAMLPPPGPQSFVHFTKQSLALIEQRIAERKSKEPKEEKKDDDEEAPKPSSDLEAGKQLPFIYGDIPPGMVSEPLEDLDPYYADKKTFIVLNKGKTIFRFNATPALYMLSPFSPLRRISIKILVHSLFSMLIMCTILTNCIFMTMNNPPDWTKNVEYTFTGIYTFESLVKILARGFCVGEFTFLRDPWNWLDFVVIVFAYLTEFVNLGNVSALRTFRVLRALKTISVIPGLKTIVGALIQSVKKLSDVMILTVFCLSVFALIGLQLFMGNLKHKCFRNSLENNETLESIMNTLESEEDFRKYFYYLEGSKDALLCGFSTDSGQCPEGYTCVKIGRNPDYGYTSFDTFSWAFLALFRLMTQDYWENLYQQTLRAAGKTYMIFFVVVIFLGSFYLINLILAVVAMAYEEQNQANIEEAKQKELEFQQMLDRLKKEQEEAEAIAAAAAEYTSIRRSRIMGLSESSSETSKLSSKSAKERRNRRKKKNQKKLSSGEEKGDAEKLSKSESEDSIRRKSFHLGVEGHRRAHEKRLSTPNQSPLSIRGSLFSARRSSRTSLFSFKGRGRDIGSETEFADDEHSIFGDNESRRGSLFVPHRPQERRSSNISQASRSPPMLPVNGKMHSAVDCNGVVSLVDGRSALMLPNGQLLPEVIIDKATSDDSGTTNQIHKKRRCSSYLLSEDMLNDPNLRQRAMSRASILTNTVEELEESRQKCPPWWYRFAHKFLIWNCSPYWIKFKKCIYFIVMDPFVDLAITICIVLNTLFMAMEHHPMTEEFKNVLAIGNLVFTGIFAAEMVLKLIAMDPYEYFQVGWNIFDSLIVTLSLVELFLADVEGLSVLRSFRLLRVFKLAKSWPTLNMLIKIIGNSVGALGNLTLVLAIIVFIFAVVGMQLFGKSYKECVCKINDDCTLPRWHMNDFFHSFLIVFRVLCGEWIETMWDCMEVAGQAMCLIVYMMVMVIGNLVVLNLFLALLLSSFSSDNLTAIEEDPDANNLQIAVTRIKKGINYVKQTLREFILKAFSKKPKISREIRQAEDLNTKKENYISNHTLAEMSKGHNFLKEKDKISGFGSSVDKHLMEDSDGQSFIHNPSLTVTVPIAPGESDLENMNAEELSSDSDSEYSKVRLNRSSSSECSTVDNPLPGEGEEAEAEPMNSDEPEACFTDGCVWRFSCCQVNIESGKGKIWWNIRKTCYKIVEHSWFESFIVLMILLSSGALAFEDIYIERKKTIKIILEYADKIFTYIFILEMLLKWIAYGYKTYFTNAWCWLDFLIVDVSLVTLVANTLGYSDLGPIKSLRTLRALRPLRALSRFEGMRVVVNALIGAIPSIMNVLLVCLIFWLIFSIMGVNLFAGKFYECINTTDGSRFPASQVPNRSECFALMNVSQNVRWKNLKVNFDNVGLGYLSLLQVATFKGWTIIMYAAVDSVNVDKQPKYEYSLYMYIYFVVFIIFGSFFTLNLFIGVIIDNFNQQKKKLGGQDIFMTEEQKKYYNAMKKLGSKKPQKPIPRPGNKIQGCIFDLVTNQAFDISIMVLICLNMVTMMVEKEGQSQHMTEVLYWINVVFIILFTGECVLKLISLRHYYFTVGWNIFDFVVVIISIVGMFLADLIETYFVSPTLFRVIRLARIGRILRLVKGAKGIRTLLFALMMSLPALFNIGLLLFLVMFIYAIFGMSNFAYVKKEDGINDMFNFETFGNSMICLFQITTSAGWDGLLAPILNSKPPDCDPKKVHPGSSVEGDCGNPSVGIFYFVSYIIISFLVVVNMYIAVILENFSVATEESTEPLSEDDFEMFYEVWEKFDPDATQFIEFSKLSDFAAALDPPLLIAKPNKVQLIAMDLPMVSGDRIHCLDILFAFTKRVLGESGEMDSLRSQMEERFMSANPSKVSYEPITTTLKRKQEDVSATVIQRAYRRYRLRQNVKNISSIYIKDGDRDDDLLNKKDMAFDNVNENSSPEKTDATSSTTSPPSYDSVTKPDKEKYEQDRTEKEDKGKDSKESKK

IC50 [1] [µM] | IC50 [2] [µM] | PAMPA (10^−6 cm/s) [3] | inhibition at 10 µM [4] [%] | SMILES
3 to 10 | > 100 | + (<0.1 10^−6 cm/s) | – | CCCC(C(=O)Nc1c(C)cccc1C)[n+]1ccccc1 (stereo not drawn) [Compound 107]
1 to 3 | > 100 | + (<0.1 10^−6 cm/s) | – | Cc1cccc(C)c1NC(=O)C[n+]1ccc(C)n1C(C)C [Compound 82]
1 to 3 | > 100 | + (<0.1 10^−6 cm/s) | – | Cc1cccc(C)c1NC(=O)C[n+]1cccn1C1CC1 [Compound 68]
1 to 3 | > 100 | + (<0.1 10^−6 cm/s) | – | COc1cc(F)c[n+](CC(=O)Nc2c(C)cccc2C)c1 [Compound 78]
< 1 | > 100 | + (<0.1 10^−6 cm/s) | – | Cc1cccc(C)c1NC(=O)C[n+]1cccc(OC(C)C)c1 [Compound 87]
3 to 10 | > 100 | + (<0.1 10^−6 cm/s) | – | Cc1cccc(C)c1NC(=O)C[n+]1cccn1C1CCC1 [Compound 72]
3 to 10 | > 100 | + (<0.1 10^−6 cm/s) | – | Cc1cccc(C)c1NC(=O)C[n+]1cccc(OCc2ccccc2)c1 [Compound 88]
1 to 3 | > 100 | + (<0.1 10^−6 cm/s) | – | Cc1cccc(C)c1NC(=O)C[n+]1c(C)ccn1C(C)C [Compound 102]
10 to 30 | > 100 | + (<0.1 10^−6 cm/s) | – | Cc1cccc(C)c1NC(=O)C[n+]1cccn1CCC#N [Compound 70]
3 to 10 | > 100 | + (<0.1 10^−6 cm/s) | – | Cc1cccc(C)c1NC(=O)C[n+]1ccc(C(N)=O)c(C(F)(F)F)c1 [Compound 90]
3 to 10 | > 100 | + (<0.1 10^−6 cm/s) | – | CCOC(=O)Cn1ccc(C)[n+]1CC(=O)Nc1c(C)cccc1C [Compound 85]
3 to 10 | > 100 | + (<0.1 10^−6 cm/s) | – | Cc1cccc(C)c1NC(=O)C[n+]1cccn1CCC(C)C [Compound 74]
3 to 10 | > 100 | + (<0.1 10^−6 cm/s) | – | CCOC(=O)Cn1c(C)cc[n+]1CC(=O)Nc1c(C)cccc1C [Compound 86]
1 to 3 | > 100 | + (<0.1 10^−6 cm/s) | – | CCOC(=O)CCn1ccc[n+]1CC(=O)Nc1c(C)cccc1C [Compound 80]
1 to 3 | > 100 | + (<0.1 10^−6 cm/s) | – | Cc1cccc(C)c1NC(=O)C[n+]1cccn1Cc1ccccc1 [Compound 92]
3 to 10 | < 10 | – | 40 to 70 | Cc1cccc(C)c1NC(=O)C[n+]1cc(F)c2ccccc2c1 [Compound 67]
1 to 3 | > 100 | – | 70 to 95 | CNC(=O)c1ccc[n+](CC(=O)Nc2c(C)cccc2C)c1 [Compound 40]
3 to 10 | 30 to 100 | + (<0.1 10^−6 cm/s) | – | Cc1cccc(C)c1NC(=O)C[n+]1cc(N)cc(C(F)(F)F)c1 [Compound 91]
3 to 10 | > 100 | + (<0.1 10^−6 cm/s) | – | Cc1cccc(C)c1NC(=O)C[n+]1c(C)ccn1C [Compound 93]
1 to 3 | > 100 | ++ (0.1-2.0 10^−6 cm/s) | – | Cc1cccc(C)c1NC(=O)C[n+]1cccc(C(C)C)c1 [Compound 31]
